{"source": "patent US20200093801A1", "about": "“NEW METHODS FOR THE TREATMENT OF MULTIPLE SCLEROSIS” (Novartis AG, priority 2017, published 2020)", "tested_on": "Cuprizone-Induced Demyelination in Mice", "assay": "Cuprizone-induced demyelination in mice, MRI (169 mg/kg)", "type": "in vivo, Mice (C57BL/6J)", "details": "169 mg/kg p.o. qd, 2-week therapeutic treatment after 5 weeks 0.2% cuprizone", "text": "Studies described below were approved by the Swiss Cantonal Veterinary Authority of Basel City, Switzerland, under the license number 2711. Mice (C57BL/6J) were commercially purchased from Charles River Laboratories, Germany or obtained from Novartis Pharma AG breeding colonies (8-9 weeks old, females). All the animals were allowed to adapt for 7 days prior the start of the experiment and housed in IVC racks (max. 4 mice/XJ Type cage). The animals were given access to food and water ad libitum. Animals were treated with cuprizone for 5 weeks. Cuprizone (Bis(cyclohexanone)oxaldihydrazone, Sigma-Aldrich) was mixed into rodent food pellets (0.2% w/w) by Provimi Kliba AG, Switzerland. Therapeutic treatment of animals after cuprizone was performed for 2 weeks on normal food with 169 mg/kg of BLZ945, qd, p.o. 10 ml/kg. BLZ945 was prepared in vehicle consisting of 0.5% methylcellulose in water and 0.1% Tween-80. Before killing 3 h after last BLZ945 dosing animals were perfused transcardially by phosphate-buffered saline (PBS), brains isolated and fixed in 4% paraformaldehyde (PFA) for 48 h at 4° C.\nMeasurements were performed with a Biospec 70/30 spectrometer (Bruker Medical Systems, Ettlingen, Germany) operating at 7 T. The operational software of the scanner was Paravision 5.1 (Bruker). Images were acquired from anesthetized, spontaneously breathing animals using a mouse brain circularly polarized coil (Bruker, Model 1P T20063V3; internal diameter 23 mm) for radiofrequency excitation and detection; neither cardiac nor respiratory triggering was applied. Following a short period of introduction in a box, animals were maintained in anesthesia with 1.5% isoflurane (Abbott, Cham, Switzerland) in oxygen, administered via a nose cone. During MRI signal acquisitions, animals were placed in prone position in a cradle made of Plexiglas, the body temperature was kept at 37±1° C. using a heating pad, and the respiration was monitored.\nA T2-weighted, two-dimensional multislice RARE (Rapid Acquisition with Relaxation Enhancement) sequence (Hennig et al., 1986) was used for determining the anatomical orientation and for evaluating signal intensities. This was followed by a two-dimensional multislice gradient-recalled FLASH (Fast Low-Angle Shot) acquisition (Haase et al., 1986) for assessment of Magnetization Transfer Ration (MTR). As both sequences had the same anatomical parameters, the choice of the regions-of-interest for evaluations was performed on the RARE images and then transferred to the FLASH images. The parameters of the acquisitions were the following: (a) RARE sequence: effective echo time 80 ms, repetition time 3280 ms, RARE factor 16, 12 averages, field of view 20×18 mm^2, matrix size 213×192, pixel size 0.094×0.094 mm^2, slice thickness 0.5 mm, 15 adjacent slices. […]", "key": {"[1]": {"details": "normalized to vehicle control (normal food)"}}, "note": "“Also recorded” adds a separate entry of the source."}
{"smiles": "CNC(=O)c1cc(Oc2ccc3nc(N[C@@H]4CCCC[C@H]4O)sc3c2)ccn1", "note": "[BLZ945, 4-(2-((1R,2R)-2-hydroxycyclohexylamino)benzothiazol-6-yloxy)-N-methylpicolinamide]", "values": [{"measurement": "Magnetization transfer ratio (MTR) in corpus callosum", "value": "No beneficial effect"}, {"measurement": "MRI contrast in corpus callosum", "setting": "[1]", "value": "not corpus callosum; also recorded: No beneficial effect"}, {"measurement": "MRI contrast in cortex", "setting": "[1]", "value": "reduces MRI contrast; also recorded: significant beneficial effect; also recorded: almost normalized to levels of control mice"}, {"measurement": "MRI contrast in striatum", "setting": "[1]", "value": "reduces MRI contrast; also recorded: significant beneficial effect; also recorded: almost normalized to levels of control mice"}]}
